Experiments:
[1] = molecular target: T1, cytochrome bd-I (Escherichia coli, UniProt P0ABJ9); test: Oxygen consumption assay with isolated E. coli EC958 cytochrome bd-I only membranes; assay type: biochemical
T1 construct: oxygen consumption activity of E. coli EC958 cytochrome bd-I-only membranes; endogenous in cells; host or cells: E. coli EC958 bd-I only strain (genotype ΔcyoA appCB::Cm), isolated membranes
Description: Membrane preparation and oxygen consumption were performed as described previously.[13] Briefly, cells were grown to exponential phase then harvested via centrifugation for 20 min at 4000 rpm and 4 °C. The cell pellet was resuspended in ice-cold sonication buffer (20 mM Tris/HCl at pH 7.4, 2 mM MgCl2, and 1 mM EGTA). The resuspended cells were sonicated (6 × 30s on ice at […]) before centrifugation at 44 000 rpm for 1 h and 4 °C to isolate membranes. The membrane pellet was resuspended in 20 mM Tris/HCl (pH 7.4) at a final concentration of 100 mg mL^−1 and stored at −20 °C. For oxygen measurements a Rank Brothers oxygen electrode with a 4 mL closed chamber was used at 37 °C, which contained 50 mM HEPES pH 7.4, 0.5 mg mL^−1 membranes (based on wet membranes) and DMSO-solubilised drug (added from 40× final concentration). A final concentration of 8 mM succinate (pH 7.4) was added (from 160 mM stock) to initiate the reaction with a single run lasting 15–20 min.

[2] = test system: E. coli EC958 cytochrome bd-I only cells; test: Growth assay against E. coli cytochrome bd-I only cells; assay type: cell-based, Escherichia coli; conditions: for IC50: Escherichia coli, read-out: IC50, growth inhibition, bd-I only E. coli cells, M9 minimal medium
Description: (§1) EC958 is a multidrug-resistant E. coli O25: H4-ST131 isolate.[16,17] Generation of the EC958 bd-I only strain (genotype ΔcyoA appCB::Cm) is described elsewhere.[13]
(§2) Starter cultures were grown in 10 mL LB (E. coli) in sterile 50 mL conical flasks at 180 rpm and 37 °C until stationary phase was reached and were used to inoculate 50 mL of fresh growth medium in 250 mL conical flasks. M9 minimal medium was used for E. coli (16 g L^−1 Na2HPO4·2H2O, 3 g L^−1 KH2PO4, 0.5 g L^−1 NaCl, 1 g L^−1 NH4Cl, 0.24 g L^−1 MgSO4, 0.01 g L^−1 CaCl2, 0.1% casamino acids and 2% glycerol). Drug stocks were prepared in DMSO so that their final concentrations were 40× higher than the working concentrations. Greiner F-bottom sterile 96-well plates were prepared by adding 100 μL of a 2× concentrated growth medium, 61.7 μL sterile milliQ H2O, 5 μL of the drug and 33.3 μL of cell culture (final OD600 of ∼0.1). Cells were grown in a FLUOstar Omega plate reader at double orbital pattern setting.

[3] = test system: E. coli EC958 cytochrome bd-I only cells; test: microbe, parasite or virus in culture; assay type: cell-based, Escherichia coli
Description: as §1
(§3) Viability assays were performed essentially as described previously.[13] Briefly, E. coli was grown overnight in 10 mL LB medium and was used to inoculate M9 medium. 20 μL of each drug was added to the wells of row A of a 96 well plate followed by 180 μL of cells (OD600 of 0.1). Cells were exposed to drug for 3 hours at 37 °C. Following drug exposure, serial dilutions were performed in 1 × phosphate buffered saline (pH 7.4) before being spotted onto LB agar plates overnight to determine changes in cell survival. Six repeats were performed for each concentration of drug which included two biological repeats and three technical repeats of each.

[4] = test system: wild type E. coli EC958 cells; test: Survival assay against wild type E. coli EC958 cells; assay type: cell-based, Escherichia coli; conditions: wild type EC958 strain
Description: as §3
(§4) Figure S1. Impact of madecassic acid upon E. coli growth and survival. (A) Growth assays of MA against wild type E. coli EC958 cells. Error bars represent standard deviations for at least 4 technical repeats, including two biological repeats. (B) Wild type E. coli EC958 cells were exposed to various concentrations of madecassic acid and bacterial survival was enumerated using serial dilution and viability plating. Error bars represent standard deviations for at least four technical repeats, including two […]
(§5) (1 picture or pasted object on this page, not shown here)

[5] = test system: wild type E. coli EC958 cells; test: Growth assay against wild type E. coli EC958 cells; assay type: cell-based, Escherichia coli; conditions: wild type EC958 strain, aerobic conditions
Description: as §2, §4, §5

[6] = molecular target: T1, cytochrome bd-I; test: Oxygen electrode cytochrome bd-I assay with duroquinol as the electron source (EcoM4 pSU2718G-cydABX-his6 membranes); assay type: biochemical; conditions: 1 mM, 400 µM duroquinol as electron donor
Description: Oxygen electrode cytochrome bd-I assays with duroquinol as the electron source Membranes from the E. coli EcoM4 pSU2718G-cydABX-his 6 strain were prepared as described previously(6). To specifically monitor cytochrome bd-I activity, duroquinol was used as a directly electron source. Duroquinol was prepared from duroquinone as previously described(7) and quantified using the extinction coefficient ΔA275(ox – red) = 16 mM-1cm-1 (8). Cytochrome bd-I activity was then monitored via oxygen consumption in a Rank Brothers oxygen electrode with a 2 mL closed chamber at 37 °C, which contained 50 mM HEPES pH 7.4, 0.5 mg/mL membranes (based on wet membranes) and DMSO-solubilised drug (added from 40x final concentration) or ‘DMSO only’ control. A final concentration of 400 µM duroquinol (in 50 mM KPi, 2mM EDTA pH 7.5) was added to initiate the reaction.
7. Rich P. Electron transfer reactions between quinols and quinones in aqueous and aprotic
8. Degli Esposti M, Lenaz G, Izzo G, Papa S. Kinetics and sidedness of ubiquinol-cytochrome c
Figure S3. […] Cytochrome bd-I activity was measured via monitoring oxygen consumption in an oxygen electrode in the presence and absence of 1 mM madecassic acid, and negative controls were recorded in the absence of membranes. […]

[7] = molecular target: T2, succinate dehydrogenase (Escherichia coli, UniProt P07014+P0AC41+P0AC44+P69054); test: Succinate dehydrogenase assay in isolated E. coli membranes; assay type: biochemical; conditions: 1 mM
T2 construct: endogenous in cells; host or cells: E. coli membranes; the main text says EcoM4 pSU2718G-cydABX-his6, the supplement says EC958
T2 sequence (P0AC41 whole entry): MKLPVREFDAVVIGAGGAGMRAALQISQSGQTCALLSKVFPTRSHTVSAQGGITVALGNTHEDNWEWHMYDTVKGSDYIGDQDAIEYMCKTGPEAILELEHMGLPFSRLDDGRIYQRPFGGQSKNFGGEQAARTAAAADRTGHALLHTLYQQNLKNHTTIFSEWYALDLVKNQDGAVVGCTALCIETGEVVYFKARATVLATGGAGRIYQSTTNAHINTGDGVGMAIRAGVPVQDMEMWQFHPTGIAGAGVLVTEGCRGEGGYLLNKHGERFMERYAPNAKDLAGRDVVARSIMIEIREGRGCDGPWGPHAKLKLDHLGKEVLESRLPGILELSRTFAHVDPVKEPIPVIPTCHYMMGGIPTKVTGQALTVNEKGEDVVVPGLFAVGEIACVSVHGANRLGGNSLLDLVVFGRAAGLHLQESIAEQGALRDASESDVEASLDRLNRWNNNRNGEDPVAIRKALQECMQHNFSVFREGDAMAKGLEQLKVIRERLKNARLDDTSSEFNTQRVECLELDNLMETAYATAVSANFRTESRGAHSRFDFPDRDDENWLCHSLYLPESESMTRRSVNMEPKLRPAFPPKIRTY
T2 sequence (P69054 whole entry): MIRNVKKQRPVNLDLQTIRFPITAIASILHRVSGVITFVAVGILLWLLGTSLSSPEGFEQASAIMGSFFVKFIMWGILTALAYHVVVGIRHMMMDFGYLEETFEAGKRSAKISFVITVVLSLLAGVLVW
T2 sequence (P07014 whole entry): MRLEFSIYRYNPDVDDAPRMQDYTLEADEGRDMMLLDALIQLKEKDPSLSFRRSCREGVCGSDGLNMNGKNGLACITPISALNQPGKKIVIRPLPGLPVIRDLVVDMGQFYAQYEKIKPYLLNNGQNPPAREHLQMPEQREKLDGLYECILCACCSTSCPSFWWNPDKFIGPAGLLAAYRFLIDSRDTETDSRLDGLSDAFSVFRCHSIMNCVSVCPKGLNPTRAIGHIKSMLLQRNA
T2 sequence (P0AC44 whole entry): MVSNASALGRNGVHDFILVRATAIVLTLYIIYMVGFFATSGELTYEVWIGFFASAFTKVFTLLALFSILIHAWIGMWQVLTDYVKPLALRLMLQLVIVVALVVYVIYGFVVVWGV
Description: Investigating the role of cytochrome bd oxidases in the antibacterial activity of madecassic acid and derivatives thereof
Samantha A. Henry,a Geraud N. Sansom,a Thao Thi Phuong Tran,b Ryan A.
Boughton,a Guy Joiner,a Calum M. Webster,a H. Ireshika C. de Silva,c Michelle D.
Garrett,a Christopher J. Serpell,d Gary K. Robinson,a Mark Shepherd a a School of Natural Sciences, University of Kent, Canterbury, United Kingdom, CT2 7NH, UK b Institute of Chemistry, Vietnam Academy of Science and Technology, 18 Hoang Quoc Viet Road, Cau […]
c Department of Chemistry, University of Colombo, Colombo 03, Sri Lanka d School of Pharmacy, University College London, 29-39 Brunswick Square, London, WC1N 1AX, UK […]
Spectrakinetics were recorded on a Cary 60 spectrophotometer for 15 min and rates were calculated using the extinction coefficient A600 = 20.7 mM -1cm-1 (5) . […]
Isolated E. coli EC958 membranes were assayed for succinate dehydrogenase activity in the presence and absence of 1 mM madecassic acid (MA), and negative controls were recorded in the absence of membranes. […]

T1 sequence (P0ABK2 whole entry): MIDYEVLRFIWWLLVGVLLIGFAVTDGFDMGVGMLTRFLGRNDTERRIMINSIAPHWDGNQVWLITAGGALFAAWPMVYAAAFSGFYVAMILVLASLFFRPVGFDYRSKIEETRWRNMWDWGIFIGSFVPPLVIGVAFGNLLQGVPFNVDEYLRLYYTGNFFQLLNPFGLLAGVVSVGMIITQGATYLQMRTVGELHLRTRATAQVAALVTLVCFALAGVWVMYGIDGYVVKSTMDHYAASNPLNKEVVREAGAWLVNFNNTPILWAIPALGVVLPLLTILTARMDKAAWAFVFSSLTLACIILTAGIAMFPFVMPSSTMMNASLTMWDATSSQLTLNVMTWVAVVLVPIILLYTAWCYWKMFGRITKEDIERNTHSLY
T1 sequence (A5A618 whole entry, further chain): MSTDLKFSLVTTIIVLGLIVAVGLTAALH
T1 sequence (P0ABJ9 whole entry): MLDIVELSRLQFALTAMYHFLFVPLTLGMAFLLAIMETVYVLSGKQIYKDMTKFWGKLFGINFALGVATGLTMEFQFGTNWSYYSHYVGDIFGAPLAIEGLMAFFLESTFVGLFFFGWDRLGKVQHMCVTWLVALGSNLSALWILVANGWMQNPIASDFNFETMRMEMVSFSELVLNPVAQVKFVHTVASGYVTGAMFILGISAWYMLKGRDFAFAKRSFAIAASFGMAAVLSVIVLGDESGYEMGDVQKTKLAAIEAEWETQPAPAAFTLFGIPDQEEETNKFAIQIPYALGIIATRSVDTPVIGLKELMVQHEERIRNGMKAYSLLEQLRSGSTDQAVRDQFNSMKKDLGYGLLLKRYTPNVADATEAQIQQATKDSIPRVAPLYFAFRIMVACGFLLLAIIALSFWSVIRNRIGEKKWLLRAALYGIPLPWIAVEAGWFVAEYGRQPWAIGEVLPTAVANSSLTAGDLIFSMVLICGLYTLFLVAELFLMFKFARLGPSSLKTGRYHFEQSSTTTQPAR
T1 sequence (P56100 whole entry, further chain): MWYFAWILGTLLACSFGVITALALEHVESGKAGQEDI

| SMILES | IC50 [1] | IC50 [2] | LC50 ([3]; Escherichia coli, 3 h, read-out: LC50 (killing)) | killing of cells (viability assay) ([3]; bd-I only E. coli cells, 3 hours exposure at 37 °C) | susceptibility to killing (survival assay) [4] | IC50 ([5]; Escherichia coli, read-out: IC50, growth inhibition) | maximal inhibition of growth [5] | effect on cytochrome bd-I activity (oxygen consumption) [6] | Max inhibition of growth ([2]; bd-I only E. coli cells) | inhibition of SDH activity [7] |
| --- | --- | --- | --- | --- | --- | --- | --- | --- | --- | --- |
| CC(=O)OCC1(C)C(OC(C)=O)C(OC(C)=O)CC2(C)C1C(O)CC1(C)C2CC=C2C3C(C)C(C)CCC3(C(=O)O)CCC21C (stereo not shown) [MA-2] | 15 ± 5 µM | 116 ± 22 µM |  |  |  |  |  |  |  |  |
| CC1CCC2(C(=O)NCCCCCCCCCCN)CCC3(C)C(=CCC4C5(C)CC(O)C(O)C(C)(CO)C5C(O)CC43C)C2C1C (stereo not shown) [MA-4] | 79 ± 44 µM | > 250 µM | 304 ± 73 µM |  |  |  |  |  |  |  |
| C[C@H]1[C@H](C)CC[C@]2(C(=O)O)CC[C@]3(C)C(=CC[C@@H]4[C@@]5(C)C[C@@H](O)[C@H](O)[C@@](C)(CO)[C@@H]5[C@H](O)C[C@]43C)[C@H]12 [MA, Madecassic acid] | 34 ± 11 µM | 9.4 ± 1.5 µM |  | did not kill | not susceptible to MA-mediated killing at concentrations below 1 mM | ~10 µM | 48% | completely abolishes bd-I activity | 63% | did not inhibit SDH |
| CC(=O)OCC1(C)C(OC(C)=O)C(OC(C)=O)CC2(C)C1C(O)CC1(C)C2CC=C2C3C(C)C(C)CCC3(C(=O)NCCCCCCCCCCN)CCC21C (stereo not shown) [MA-3] | 10 ± 1 µM | 16 ± 11 µM |  |  |  |  |  |  |  |  |

Reference: PMC12822377, “Investigating the role of cytochrome bd oxidases in the antibacterial activity of madecassic acid and derivatives thereof” (RSC Medicinal Chemistry, 2026)
